# In patent US20090220562A1, “Osteogenic and anti-adipogenic oxysterols” (priority 2005, published 2009):
# B1: BMP7: bone morphogenic protein 7 (protein, UniProt P18075 293-431, looked up)
# Bone morphogenetic protein 7: STGSKQRSQNRSKTPKNQEALRMANVAENSSSDQRQACKKHELYVSFRDLGWQDWIIAPEGYAAYYCEGECAFPLNSYMNATNHAIVQTLVHFINPETVPKPCCAPTQLNAISVLYFDDSSNVILKKYRNMVVRACGCH
# Experiments:
# Type in all cases: cell-based, mouse
# osteocalcin mRNA = assay: Northern blotting for osteocalcin mRNA in M2-10B4 cells; details: for synergy with oxysterols in induction of osteocalcin: BMP 50 ng/ml with 22S+20S (SS, 2.5 μM)
# Protocol: RNA isolation and Northern blot analysis—Following treatment of cells under appropriate experimental conditions, total RNA was isolated using the RNA isolation kit from Stratagene (La Jolla, Calif., U.S.A.). Total RNA ([…]) was run on a 1% agarose/formaldehyde gel and transferred to Duralon-UV membranes (Strategene, CA, U.S.A.) and cross-linked with UV light. The membranes were hybridized overnight at 60 degree C. with ^32P-labeled mouse osteocalcin cDNA probe, mouse lipoprotein lipase (LPL), mouse adipocyte protein 2 (aP^2) PCR-generated probes, human 28S or 18S rRNA probes obtained from Geneka Biotechnology (Montreal, Quebec, Canada) and Maxim Biotech (San Francisco, Calif., U.S.A.), respectively. The PCR products were generated using primer sets synthesized by Invitrogen (Carlsbad, Calif., U.S.A.) with the following specifications: mouse aP2 gene (accession no. M13261); sense (75-95) 5′-[…]-3′, antisense (362-383) 5′-[…]-3′, generating a PCR product of 309 base pairs. Mouse LPL (accession no. XM—134193); sense (1038-1058) 5′-[…]-3′, antisense (1816-1836) 5′-[…]-3′, generating a PCR product of 799 base pairs. The PCR products were gel-purified and sequenced by the UCLA sequencing core, showing the highest similarity to their respective GenBank entries. Following hybridization, the blots were washed twice at room temperature with 2×SSC+0.1% SDS, and then twice at 60 degree C. with 0.5×SSC+0.1% SDS, and exposed to X-ray film. The extent of gene induction was determined by densitometry.
# After 4 and 8 days, total RNA from duplicate samples was isolated and analyzed for osteocalcin (Osc) and 28S rRNA expression by Northern blotting as described. FIG. 3E is a radiogram of Northern blotting for osteocalcin mRNA in M2 cells exposed to a control or combination of oxysterols for 4 or 8 days. FIG. 3F is a bar graph depicting the relative demsometric units of osteocalcin mRNA in M2 cells exposed to a control or combination of oxysterols for 4 -or 8 days. Data from densitometric analysis of the Northern blot is shown in (F) as the average of duplicate samples, normalized to 28S rRNA.
# (§1) Next, a combination of 22R and 20S oxysterols (RS, 2.5 μM each) were added in the presence or absence of SC as indicated. After 3 days, ALP activity was measured as described earlier. […] (B) M2 cells were treated as described in (A) and after 10 days matrix mineralization in cultures was quantified by a ^45Ca incorporation assay as described earlier. […] (C) M2 cells were pretreated with 20 μM SC for 4 hours, followed by the addition of RS in the presence or absence of SC as described above. After 8 days, total RNA was isolated and analyzed for osteocalcin (Osc) and […] expression by Northern blotting as previously described. Data from densitometric analysis of the Northern blot is shown in (D) as the average of duplicate samples, normalized to 18S rRNA. (E) M2 cells at confluence were pretreated for 2 hours with control vehicle (C), or PLA2 inhibitors ACA (25 μM) and AACOCF3 (AAC, 20 μM), in osteogenic medium. Next, a combination of 22R and 20S oxysterols (RS, 2.5 μM) was added in the presence or absence of the inhibitors as indicated. After 3 days, ALP activity was measured as previously described. […] (F) M2 cells were treated as described in (E). After 10 days, matrix mineralization in cultures was quantified using a ^45Ca incorporation assay as previously described. Results from a representative of three experiments are shown, reported as the mean of quadruplicate determinations ±SD, normalized to protein concentration (p<0.01 for RS vs. RS+ACA and RS+AAC).
# ALP activity was measured after 2 days, as described. […] (B) M2 cells were treated as described in (A). After 10 days, matrix mineralization in cultures was quantified using a ^45Ca incorporation assay as described. […] (C) M2 cells were treated under similar conditions as those described above. […]
# marrow stromal cells = assay: Osteogenic differentiation of marrow stromal cells (marker not specified: ALP activity, osteocalcin mRNA, mineral formation)
# Protocol: The purpose of the study was to identify other osteogenic and anti-adipogenic oxysterols based on the chemical structure of previously identified oxysterols. The ability of such candidate oxysterol molecules to induce the formation of osteoblastic cells in cultures of marrow stromal cells (which are progenitors of osteoblastic cells that make bone) were tested. In order to assess osteogenic differentiation of cells, one or more markers of osteogenic differentiation were measured in untreated cells and cells treated with the test oxysterols. These markers included: alkaline phosphatase activity, osteocalcin mRNA expression and mineral formation in cultures of marrow stromal cells. Activation of either one or more than one marker by a single or combination oxysterols is indicative of their osteogenic property.
# [1] = system: M2-10B4 marrow stromal cells; assay: Matrix mineralization (45Ca incorporation assay, von Kossa staining) in M2-10B4 marrow stromal cells; details: for effect on oxysterol-induced mineralization: 22R+20S (RS), SC-560 10 μM, ACA 25 μM, AACOCF3 20 μM or PD98059 20 μM, 10 days
# Protocol: (§2) Cells: M2-10B4 mouse marrow stromal cell line obtained from American Type Culture Collection (ATCC, Rockville, Md., U.S.A.) was derived from bone marrow stromal cells of a (C57BL/6J x C3H/HeJ) Fl mouse, and support human and murine myelopoiesis in long-term cultures (as per ATCC) and have the ability to differentiate into osteoblastic and adipocytic cells. Unless specified, these cells were cultured in RPMI 1640 containing 10% heat-inactivated FBS, and supplemented with 1 mM sodium pyruvate, 100 U/ml penicillin, and 100 U/ml streptomycin (all from Irvine Scientific).
# Von Kossa and oil red O staining—Matrix mineralization in cell monolayers was detected by silver nitrate staining as previously described. Oil red O staining for detection of adipocytes was performed as previously described.
# ^45Ca incorporation assay—Matrix mineralization in cell monolayers was quantified using the ^45Ca incorporation assay as previously described.
# After 14 days, mineralization was identified by a von Kossa staining, which appears black. FIG. 3C is a depiction of von Kossa staining of M2 cells exposed to various conditions.
# After 14 days, matrix mineralization in cultures was quantified using a ^45Ca incorporation assay.
# as §1
# (A) M2 cells at confluence were pretreated for four hours with RPMI containing 1% FBS, followed by treatment with control vehicle or 5 μM 20S oxysterol for 1, 4, or 8 hours. Next total cell extracts were prepared and analyzed for levels of native or phosphorylated ERK (pERK) using specific antibodies as previously described. Data from a representative of four experiments are shown, each treatment shown in duplicate samples. (B) M2 cells at confluence were pretreated for 2 hours with control vehicle (C) or 20 μM PD98059 (PD) in osteogenic medium as previously described. Next, a combination of 22R and 20S oxysterols (RS, 5 μM each) were added to appropriate wells as indicated. After 10 days of incubation, matrix mineralization was quantified by the ^45Ca incorporation assay as previously described. […] (C) M2 cells at confluence were pretreated for 2 hours with 20 µM PD98059 (PD) in RPMI containing 5% FBS. Next, the cells were treated with control vehicle (C), 10 μM troglitazone (Tro), or 10 μM of 20S or 22S oxysterols, alone or in combination as indicated. After 10 days, adipocytes were visualized by oil Red O staining and quantified by light microscopy as previously described. […]
# [2] = system: M2-10B4 marrow stromal cells; assay: Alkaline phosphatase (ALP) activity assay on whole cell extracts of M2-10B4 marrow stromal cells; details: for effect on oxysterol-induced alkaline phosphatase activity: 22R+20S (RS), pretreatment with SC-560 10 μM, ACA 25 μM, AACOCF3 20 μM or PD98059 20 μM, 3 days; for reversal of the effects of COX-1 and PLA2 inhibitors on oxysterol-induced alkaline phosphatase activity: 1 μM PGE2, 25 μM arachidonic acid, data not shown
# Protocol: as §2
# Cells were always treated at 90% confluence. […]
# as §1, with “Results from a representative of three experiments are shown, reported as the mean of quadruplicate determinations ±SD, normalized to protein concentration (p<0.01 for RS vs. RS+ACA and RS+AAC).” left out
# [3] = pretreatment, cyclopamine 1-10 μM, DKK-1 1 μg/ml
molecule,measurement,setting,value
"CC(C)CCC[C@@H](C)[C@H]1CC[C@H]2[C@@H]3[C@H](O)C=C4C[C@@H](O)CC[C@]4(C)[C@H]3CC[C@]12C [7alpha-hydroxycholesterol, reference compound]",levels of osteocalcin mRNA relative to the control,"osteocalcin mRNA; 5 μM, eight days, M2-10B4",did not appear to significantly affect
C[C@@H](CO)CCC[C@@H](C)[C@H]1CC[C@H]2[C@@H]3CC=C4C[C@@H](O)CC[C@]4(C)[C@H]3CC[C@]12C [26-hydroxycholesterol],"osteogenic property, alone or in combination with originally described oxysterols",marrow stromal cells,osteoinductive
"CCCCC/C=C\C/C=C\C/C=C\C/C=C\CCCC(=O)C(F)(F)F [AACOCF3, reference compound]",effect on oxysterol-induced mineralization,[1],inhibited
same,effect on oxysterol-induced alkaline phosphatase activity,[2],inhibited
"CCCCCc1ccc(/C=C/C(=O)Nc2ccccc2C(=O)O)cc1 [ACA, reference compound]",effect on oxysterol-induced mineralization,[1],inhibited
same,effect on oxysterol-induced alkaline phosphatase activity,[2],inhibited
"CS(=O)(=O)Nc1ccc([N+](=O)[O-])cc1OC1CCCCC1 [NS-398, reference compound]",inhibition of the osteogenic effects of oxysterol combinations,"marrow stromal cells; 22R+20S and 22S+20S, SC-560 1-20 μM, NS-398 20 μM (highest non-toxic dose)",negligible inhibitory effects
"COc1cccc(-c2cc(=O)c3ccccc3o2)c1N [PD98059, reference compound]",effect on oxysterol-induced mineralization,[1],inhibited
"CCCCC[C@H](O)/C=C/[C@H]1[C@H](O)CC(=O)[C@@H]1C/C=C\CCCC(=O)O [PGE2, prostaglandin E2, reference compound]",reversal of the effects of COX-1 and PLA2 inhibitors on oxysterol-induced alkaline phosphatase activity,[2],reversed
"COc1ccc(-n2nc(C(F)(F)F)cc2-c2ccc(Cl)cc2)cc1 [SC-560, reference compound]",effect on oxysterol-induced mineralization,[1],inhibited
same,effect on oxysterol-induced osteocalcin gene expression,"osteocalcin mRNA; 22R+20S (RS), SC-560 20 μM, 8 days, PD98059 (data not shown)",inhibited
"O=S(=O)(c1ccccc1)N(CC(F)(F)F)c1ccc(C(O)(C(F)(F)F)C(F)(F)F)cc1 [TO-901317, reference compound]",induction of mineralization,[1]; after 10 days,did not induce
same,effect on alkaline phosphatase activity,[2]; 1-10 μM,dose-dependent inhibition
same,induction of osteocalcin gene expression,osteocalcin mRNA; after 10 days,did not induce
"CCCCC/C=C\C/C=C\C/C=C\C/C=C\CCCC(=O)O [arachidonic acid, reference compound]",reversal of the effects of COX-1 and PLA2 inhibitors on oxysterol-induced alkaline phosphatase activity,[2],reversed
"C[C@]12CC[C@@H]3c4ccc(O)cc4CC[C@H]3[C@@H]1CC[C@@H]2O [beta-estradiol, reference compound]",osteogenic properties,marrow stromal cells,did not have any osteogenic properties
"C[C@]12CC[C@H]3[C@@H](CCC4=C[C@H](O)CC[C@@H]43)[C@@H]1CC[C@@H]2O [estren, reference compound]",osteogenic properties,marrow stromal cells,did not have any osteogenic properties
BMP14: bone morphogenic protein 14,synergy with oxysterols in induction of mineralization,[1],synergistically induced
same,synergy with oxysterols in induction of alkaline phosphatase activity,[2],synergistically induced
same,synergy with oxysterols in induction of osteocalcin,osteocalcin mRNA; eight days,synergistic induction
DKK-1: Wnt signaling inhibitor,effect on SS-induced mineralization,[1]; [3],inhibited
same,effect on SS-induced alkaline phosphatase (ALP) activity,[2]; [3],inhibited
same,effect on SS-induced osteocalcin mRNA expression,osteocalcin mRNA; [3],inhibited
B1,synergy with oxysterols in induction of mineralization,[1],synergistically induced
same,synergy with oxysterols in induction of alkaline phosphatase activity,[2],synergistically induced
same,synergy with oxysterols in induction of osteocalcin,osteocalcin mRNA; eight days,synergistic induction
